target: BTK in mouse bone marrow (Mus musculus (Mouse), UniProt P35991); test: Mouse Bone Marrow Assay (MSD ELISA of BTK degradation in mouse bone marrow); format: in vivo; conditions: female C57BL/6J mice, single dose of Dose A, bone marrow collected after 24 hours, % remaining BTK in vehicle versus treated samples
Procedure: Female C57BL/6J mice (Jackson Laboratories) were used for this study. Compounds or vehicle/control were prepped with EtOH; PEG-400; Phosal 53 MCT (10:30:60, v/v). Four mice were tested per compound or vehicle/control. On Day 1, mice were administered a single dose of Dose A. On Day 2 (after 24 hours), tissue (bone marrow) was collected from one hind leg per mouse.
An MSD (Meso Scale Discovery) ELISA (enzyme-linked immunosorbent assay) based assay was used to determine BTK degradation in mouse bone marrow. The following materials and equipment were used: 10% NP40 solution (nonionic polyoxyethylene surfactant, ThermoFisher, cat no. 28324); protease inhibitor mini tablet (Roche, cat no. 05 892 970 001); PhosphoSTOP™ tablet (Roche, cat no. 04 906 837 001); Pierce™ BCA Protein Assay Kit (Thermofisher, Cat No. 23225); Precellys® 2 mL lysing tube with 2.8 mm beads (VWR, cat no. 10032-756); Bertin Precellys® 24/Cryolys ® cooling system; 96-well MSD streptavidin pre-coated plates (MSD, cat no. L15SA-1); MSD Blocker A (MSD, cat no. R93BA-4); capture antibody, biotinylated BTK mAb (BD Biosciences, cat no. 624008; custom order); primary detection antibody, BTK RpAb (rabbit polyclonal antibody, CST, cat no. 8547S, D3H5 clone); secondary detection antibody, anti-Rabbit-Sulfo-Tag (MSD, cat no. R32AB-1); read Buffer, 4× (MSD, cat no. R92TC-1); recombinant BTK protein (Thermofisher, cat no. PR5442A); MSD Tris Wash Buffer (10×) (MSD, cat no. R61TX-1); PBS (phosphate-buffered saline); deionized water (diH2O); Lysis Buffer [0.2% NP40 in PBS+Protease Inhibitor tablet (1 tablet/10 mL)+PhosphoSTOP tablet (1 tablet/10 mL)]; 3% MSD Blocker A [MSD Blocker A+450 mL diH2O+50 mL]; and 10× MSD Tris Wash Buffer.
Lysis buffer [(PBS+0.2% NP40+PI (protease inhibitor)+PhosphoSTOP)]was prepared and put on ice until it was fully cold. Ice cold lysis buffer […] was added to each Precellys® tube containing beads and bone marrow sample. Sample tubes were transferred into Precellys® machine and homogenized using 5000 rpm -2×20 seconds. The sample lysates were centrifuged at 14,000 rpm for 20 minutes at 4° C. after homogenizing.
The protein concentration was determined using Pierce™ BCA Protein Assay Kit following manufacturer's recommended protocol. The protein normalized working solution was prepared, using 30 μg protein per sample lysate for assay.
A 300 ng/ml working stock solution of recombinant BTK protein in lysis buffer was prepared, and the sample was serially diluted at 3-fold dilution (10-point assay, highest concentration was 300 ng/mL and lowest concentration was 0.015 ng/mL)
MSD plate coating: Coating antibody (biotinylated-BTK mAb) stock solution was prepared at 1 μg/mL in PBS buffer. 50 μL/well capture antibody (Biotinylated BTK mAb) solution was added, and the plates were shaken gently at ambient temperature for two hours. The plates were washed 3 times with 1× MSD Tris Wash Buffer in a plate washer (300 μL/well), and the plates were blocked with 3% MSD Blocker A (150 μL/well). The plates were incubated for an additional 1-2 hours at ambient temperature with gentle shaking. The plates were washed 3 times with 1× MSD wash buffer using plate washer. Bone marrow lysates (30 μg) at a final volume of 50 μL/well were added into the plates. The serially diluted standard samples were added to the same plates at a final volume of 50 μL/well. The plates were incubated overnight at 4° C. with gentle shaking.
The plates were washed three times with 1× MSD wash buffer (prepared from 10× concentration buffer) using plate washer. Primary detection antibody at 50 μL/well was added (BTK RpAb; 1:1000 dilution in 1% MSD Blocker A). The plates were incubated for two hours at ambient temperature with gentle shaking. The plates were washed three times with 1× MSD wash buffer using plate washer. Anti-Rabbit-SULFO-TAG secondary antibodies (50 μl/well) were added, 1:500 diluted in 1% MSD Blocker A, and the plates were incubated for one to two hours at ambient temperature. […]

Sequence of BTK in mouse bone marrow (P35991 whole entry): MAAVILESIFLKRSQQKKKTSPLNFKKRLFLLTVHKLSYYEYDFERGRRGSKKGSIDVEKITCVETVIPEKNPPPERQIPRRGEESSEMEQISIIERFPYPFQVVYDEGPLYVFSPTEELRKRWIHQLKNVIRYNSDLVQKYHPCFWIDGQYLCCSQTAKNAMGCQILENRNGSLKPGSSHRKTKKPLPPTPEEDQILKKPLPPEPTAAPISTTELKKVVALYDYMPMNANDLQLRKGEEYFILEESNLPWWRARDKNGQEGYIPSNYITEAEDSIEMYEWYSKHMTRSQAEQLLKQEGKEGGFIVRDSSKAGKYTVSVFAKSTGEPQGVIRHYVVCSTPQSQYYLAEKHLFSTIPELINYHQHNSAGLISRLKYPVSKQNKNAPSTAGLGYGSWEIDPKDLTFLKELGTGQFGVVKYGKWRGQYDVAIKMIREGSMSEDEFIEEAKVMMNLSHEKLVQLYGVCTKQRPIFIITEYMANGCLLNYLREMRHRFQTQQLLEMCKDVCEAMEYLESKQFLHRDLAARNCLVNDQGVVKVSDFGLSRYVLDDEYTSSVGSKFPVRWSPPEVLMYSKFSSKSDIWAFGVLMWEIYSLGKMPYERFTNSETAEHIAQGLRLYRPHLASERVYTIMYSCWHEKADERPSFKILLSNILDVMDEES

Row | Mouse Bone Marrow (%), % remaining BTK [%] | Structure (SMILES)
1 | 11 | Cc1cc(-c2cc(Nc3ccc(N4CCN(CCc5ccc(N6CCC(=O)NC6=O)cc5)C[C@@H]4C)cn3)ncn2)ccc1[C@@H](C)NC(=O)c1nc(C(C)(C)C)no1 [Example 1, 3-tert-butyl-N-[(1R)-1-{4-[6-({5-[(2S)-4-{2-[4-(2,4-dioxo-1,3-diazinan-1-yl)phenyl]ethyl}-2-methylpiperazin-1-yl]pyridin-2-yl}amino)pyrimidin-4-yl]-2-methylphenyl}ethyl]-1,2,4-oxadiazole-5-carboxamide]
2 | 12 | Cc1cc(-c2cc(Nc3ccc(N4CCN(CCc5ccc(N6CCC(=O)NC6=O)cc5)C[C@H]4C)cn3)ncn2)ccc1[C@@H](C)NC(=O)c1nc(C(C)(C)C)no1 [Example 2, 3-tert-butyl-N-[(1R)-1-{4-[6-({5-[(2R)-4-{2-[4-(2,4-dioxo-1,3-diazinan-1-yl)phenyl]ethyl}-2-methylpiperazin-1-yl]pyridin-2-yl}amino)pyrimidin-4-yl]-2-methylphenyl}ethyl]-1,2,4-oxadiazole-5-carboxamide]
3 | 22 | Cc1cc(-c2cc(Nc3ccc(N4CCN(CCc5ccc(N6CCC(=O)NC6=O)cc5)CC4)cn3)ncn2)ccc1[C@@H](C)NC(=O)c1nc(C(C)(C)C)no1 [Example 3, 3-tert-butyl-N-{(1R)-1-[4-(6-{[5-(4-{2-[4-(2,4-dioxo-1,3-diazinan-1-yl)phenyl]ethyl}piperazin-1-yl)pyridin-2-yl]amino}pyrimidin-4-yl)-2-methylphenyl]ethyl}-1,2,4-oxadiazole-5-carboxamide]
4 | 13 | Cc1cc(-c2cc(Nc3ccc(N4CCN(CCc5ccc(N6CCC(=O)NC6=O)c(F)c5)C[C@@H]4C)cn3)ncn2)ccc1[C@@H](C)NC(=O)c1nc(C(C)(C)C)no1 [Example 4, 3-tert-butyl-N-[(1R)-1-{4-[6-({5-[(2S)-4-{2-[4-(2,4-dioxo-1,3-diazinan-1-yl)-3-fluorophenyl]ethyl}-2-methylpiperazin-1-yl]pyridin-2-yl}amino)pyrimidin-4-yl]-2-methylphenyl}ethyl]-1,2,4-oxadiazole-5-carboxamide]
5 | 12 | Cc1cc(-c2cc(Nc3ccc(N4CCN(CCc5ccc(N6CCC(=O)NC6=O)c(F)c5)C[C@H]4C)cn3)ncn2)ccc1[C@@H](C)NC(=O)c1nc(C(C)(C)C)no1 [Example 5, 3-tert-butyl-N-[(1R)-1-{4-[6-({5-[(2R)-4-{2-[4-(2,4-dioxo-1,3-diazinan-1-yl)-3-fluorophenyl]ethyl}-2-methylpiperazin-1-yl]pyridin-2-yl}amino)pyrimidin-4-yl]-2-methylphenyl}ethyl]-1,2,4-oxadiazole-5-carboxamide]
6 | 19 | CC[C@H]1CN(CCc2ccc(N3CCC(=O)NC3=O)cc2)CCN1c1ccc(Nc2cc(-c3ccc([C@@H](C)NC(=O)c4nc(C(C)(C)C)no4)c(C)c3)ncn2)nc1 [Example 6, 3-tert-butyl-N-[(1R)-1-{4-[6-({5-[(2S)-4-{2-[4-(2,4-dioxo-1,3-diazinan-1-yl)phenyl]ethyl}-2-ethylpiperazin-1-yl]pyridin-2-yl}amino)pyrimidin-4-yl]-2-methylphenyl}ethyl]-1,2,4-oxadiazole-5-carboxamide]
7 | 22 | CC[C@H]1CN(CCc2ccc(N3CCC(=O)NC3=O)c(F)c2)CCN1c1ccc(Nc2cc(-c3ccc([C@@H](C)NC(=O)c4nc(C(C)(C)C)no4)c(C)c3)ncn2)nc1 [Example 7, 3-tert-butyl-N-[(1R)-1-{4-[6-({5-[(2S)-4-{2-[4-(2,4-dioxo-1,3-diazinan-1-yl)-3-fluorophenyl]ethyl}-2-ethylpiperazin-1-yl]pyridin-2-yl}amino)pyrimidin-4-yl]-2-methylphenyl}ethyl]-1,2,4-oxadiazole-5-carboxamide]
8 | 30 | CC[C@@H]1CN(CCc2ccc(N3CCC(=O)NC3=O)cc2)CCN1c1ccc(Nc2cc(-c3ccc([C@@H](C)NC(=O)c4nc(C(C)(C)C)no4)c(C)c3)ncn2)nc1 [Example 8, 3-tert-butyl-N-[(1R)-1-{4-[6-({5-[(2R)-4-{2-[4-(2,4-dioxo-1,3-diazinan-1-yl)phenyl]ethyl}-2-ethylpiperazin-1-yl]pyridin-2-yl}amino)pyrimidin-4-yl]-2-methylphenyl}ethyl]-1,2,4-oxadiazole-5-carboxamide]
9 | 31 | Cc1cc(-c2cc(Nc3ccc(N4CCN(CCc5ccc(N6CCC(=O)NC6=O)cc5)CC4(C)C)cn3)ncn2)ccc1[C@@H](C)NC(=O)c1nc(C(C)(C)C)no1 [Example 9, 3-tert-butyl-N-{(1R)-1-[4-(6-{[5-(4-{2-[4-(2,4-dioxo-1,3-diazinan-1-yl)phenyl]ethyl}-2,2-dimethylpiperazin-1-yl)pyridin-2-yl]amino}pyrimidin-4-yl)-2-methylphenyl]ethyl}-1,2,4-oxadiazole-5-carboxamide]
10 | 17 | Cc1cc(-c2cc(Nc3ccc(N4CCN(CCc5ccc(N6CCC(=O)NC6=O)cc5)CC4)cn3)ncn2)c(F)cc1[C@@H](C)NC(=O)c1nc(C(C)(C)C)no1 [Example 12, 3-tert-butyl-N-{(1R)-1-[4-(6-{[5-(4-{2-[4-(2,4-dioxo-1,3-diazinan-1-yl)phenyl]ethyl}piperazin-1-yl)pyridin-2-yl]amino}pyrimidin-4-yl)-5-fluoro-2-methylphenyl]ethyl}-1,2,4-oxadiazole-5-carboxamide]
11 | 26 | Cc1cc(-c2cc(Nc3ccc(N4CCN(CCc5ccc(N6CCC(=O)NC6=O)cc5)C[C@@H]4C(C)C)cn3)ncn2)ccc1[C@@H](C)NC(=O)c1nc(C(C)(C)C)no1 [Example 13, 3-tert-butyl-N-[(1R)-1-{4-[6-({5-[(2S)-4-{2-[4-(2,4-dioxo-1,3-diazinan-1-yl)phenyl]ethyl}-2-(propan-2-yl)piperazin-1-yl]pyridin-2-yl}amino)pyrimidin-4-yl]-2-methylphenyl}ethyl]-1,2,4-oxadiazole-5-carboxamide]
12 | 16 | C[C@@H](NC(=O)c1nc(C(C)(C)C)no1)c1ccc(-c2cc(Nc3ccc(N4CCN(CCc5ccc(N6CCC(=O)NC6=O)cc5)C[C@@H]4C)cn3)ncn2)cc1Cl [Example 14, 3-tert-butyl-N-[(1R)-1-{2-chloro-4-[6-({5-[(2S)-4-{2-[4-(2,4-dioxo-1,3-diazinan-1-yl)phenyl]ethyl}-2-methylpiperazin-1-yl]pyridin-2-yl}amino)pyrimidin-4-yl]phenyl}ethyl]-1,2,4-oxadiazole-5-carboxamide]
13 | 25 | Cc1cc(-c2cc(Nc3ccc(N4CCN(CCc5ccc(N6CCC(=O)NC6=O)cc5)C[C@@H]4C)cc3)ncn2)ccc1[C@@H](C)NC(=O)c1nc(C(C)(C)C)no1 [Example 18]
14 | 51 | Cc1cc(-c2cc(Nc3ccc(CCN4CCN(c5ccc(N6CCC(=O)NC6=O)cc5)CC4)cn3)ncn2)ccc1[C@@H](C)NC(=O)c1nc(C(C)(C)C)no1 [Example 19]
